Data on 4 compounds can be found in ChEMBL document CHEMBL1201862, “PubChem BioAssay data set” (2004).

Some test systems named below: ACHN; NCI-H522; CCRF-CEM; DU-145; HCT-116; K562; BT-549; NCI-H226; NCI-H23; RXF 393; OVCAR-4; SK-MEL-5; PC-3; NCI/ADR-RES; HCT-15; A549; HOP-62; UO-31; U-251; OVCAR-3.
Common to all, as to assay: NCI anticancer screen, dose series, 48 h

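A five-concentration, 48-hour dose response in 96-well plates underlies each endpoint, interpolated linearly between surrounding concentrations. GI50 marks 50% less growth.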 Active and inactive are the calls of the source. Rule as the data show it: active = GI50 up to about 1.1 µM and inactive = higher.

Take `O=C1N=C2SC=C(NC(=S)Nc3ccccc3)N2NC12c1ccccc1-c1ccccc12`: the GI50 in the assay with ACHN is 9.4 µM (inactive); in the assay on NCI-H522, > 10 µM (inactive); in the assay on CCRF-CEM, > 10 µM (inactive); in the assay with DU-145 it was > 10 µM (inactive); in the assay with HCT-116, > 10 µM (inactive); with K562, > 10 µM (inactive). In addition, the GI50 in the assay with BT-549, in the assay with NCI-H226, with NCI-H23, in the assay on RXF 393, with OVCAR-4 and in the assay with SK-MEL-5 was > 10 µM (inactive) throughout. Also, the GI50 in the assay with PC-3 was > 10 µM (inactive); in the assay with NCI/ADR-RES, > 10 µM (inactive); in the assay on HCT-15, greater than 10 µM; with A549 it was > 10 µM (inactive); in the assay on HOP-62 it was > 10 µM (inactive); with UO-31 it was 8.67 µM (inactive).

With `COC(=O)Cc1ccc2c(cnn2-c2ccccc2)c1OC`, the GI50 in the assay with ACHN, with NCI-H522, in the assay with CCRF-CEM, in the assay on DU-145, with HCT-116 and in the assay with K562 was > 10 µM (inactive) throughout. The GI50 with BT-549, in the assay on NCI-H226, in the assay with NCI-H23, in the assay on RXF 393, in the assay with OVCAR-4 and in the assay with SK-MEL-5 was > 10 µM (inactive) in each case. Further, the GI50 in the assay with PC-3 was > 10 µM (inactive); in the assay with NCI/ADR-RES, > 10 µM (inactive); in the assay with HCT-15, greater than 10 µM; in the assay with A549 it was > 10 µM (inactive); in the assay with HOP-62 it was > 10 µM (inactive); in the assay with U-251 it was > 10 µM (inactive). In the assay with OVCAR-3, the GI50 was > 10 µM (inactive).

For `Cc1cc2c(cc1Cl)SC(NN(C)C)=NS2(=O)=O`, the GI50 in the assay with ACHN, with NCI-H522, with CCRF-CEM, in the assay with DU-145, with HCT-116 and in the assay on K562 was > 10 µM (inactive) each time. The GI50 with BT-549, in the assay with NCI-H226, in the assay on NCI-H23, in the assay on RXF 393, in the assay on OVCAR-4 and in the assay with SK-MEL-5 was > 10 µM (inactive) throughout. In addition, the GI50 in the assay on PC-3 is > 10 µM (inactive); in the assay on NCI/ADR-RES, > 10 µM (inactive); with HCT-15, greater than 10 µM; in the assay with A549, > 10 µM (inactive); with HOP-62 it was > 10 µM (inactive); with U-251, > 10 µM (inactive). For the same compound, the GI50 with OVCAR-3 is > 10 µM (inactive).

`Cc1ccc(C)c(NC(=O)C(=O)C2C(=O)C3=C(CC2(C)C)Nc2ccccc2S3)c1` (stereo not given): the GI50 in the assay on ACHN is > 100 µM (inactive); in the assay with NCI-H522, > 100 µM (inactive); with CCRF-CEM, 70.6 µM (inactive); in the assay with DU-145, 93.5 µM (inactive); in the assay on HCT-116, > 100 µM (inactive); in the assay on BT-549 it was > 100 µM (inactive). Further, the GI50 was 58.1 µM (inactive) with NCI-H226; > 100 µM (inactive) with NCI-H23; 60.5 µM (inactive) in the assay with RXF 393; > 100 µM (inactive) with OVCAR-4; 79.8 µM (inactive) with SK-MEL-5; > 100 µM (inactive) with PC-3. Further, the GI50 is 65.2 µM (inactive) with NCI/ADR-RES; greater than 100 µM with HCT-15; > 100 µM (inactive) in the assay on A549; 31.6 µM (inactive) in the assay on HOP-62; 87.9 µM (inactive) in the assay with U-251; 53.8 µM (inactive) with UO-31. Further, the GI50 in the assay on OVCAR-3 is 55.6 µM (inactive).
